14 molecules from ChEMBL document CHEMBL1938249, “Synthesis, antimalarial activity, and structure-activity relationship of 7-(2-phenoxyethoxy)-4(1H)-quinolones” (J Med Chem, 2011) can be followed below.

In general, EC50 refers to the concentration at which the effect is half-maximal. A high value points to a less potent agent.

The first series concerns Plasmodium falciparum. Kind of series: Antimalarial activity against chloroquine-, pyrimethamine-resistant ring stage Plasmodium falciparum W2 infected in human A positive erythrocytes after 72 hrs by SYBR green 1-based fluorescence assay. The following applies: W2, 72 h. The class given is functional, organism-based.
`CCCCc1cc2c(=O)c(-c3c(C)noc3C)c(C)[nH]c2cc1OCCOc1ccccc1` displayed an EC50 of 27 nM.
Take `CCc1c(C)[nH]c2cc(OCCOc3ccccc3)c(OC)cc2c1=O`: the EC50 amounted to 184 nM.
Consider `CCCCc1cc2c(=O)c(-c3ccc(Cl)cc3C)c(C)[nH]c2cc1OCCOc1ccccc1`, for which a half-maximal effect (EC50) was put at 68.7 nM.
Same read-out and setting: as for `CCCCc1cc2c(=O)c(-c3cccc(Oc4ccc(F)cc4)c3)c(C)[nH]c2cc1OCCOc1ccccc1`, the figure is 1390 nM; as for `CCCCc1cc2c(=O)c(-c3ccccc3)c(C)[nH]c2cc1OCCOc1ccccc1`, 1070 nM; as for `COC(=O)c1c[nH]c2cc(OC)c(Cl)cc2c1=O`, 134 nM.
As to `CCCCc1cc2c(=O)c(-c3ccc(C(F)(F)F)cc3F)c(C)[nH]c2cc1OCCOc1ccccc1`, the EC50 came to 27.9 nM.
For the molecule `CCCCc1cc2c(=O)c(-c3ccc(C(F)(F)F)cc3C)c(C)[nH]c2cc1OCCOc1ccccc1`, the EC50 came out at 71.8 nM. This EC50 is about 2.6-fold higher than that of the molecule before.
Turning to `CCCCc1cc2c(=O)c(-c3ccc(COc4ccc(OC(F)(F)F)cc4)cc3)c(C)[nH]c2cc1OCCOc1ccccc1`, a half-maximal effect (EC50) was put at 4050 nM.
The same measure, in the same setting: under `CCc1c(C)[nH]c2cc(OCCOc3ccccc3)ccc2c1=O` stands 104 nM; under `CCc1c(C)[nH]c2cc(OCCCO)c(Cl)cc2c1=O`, 8450 nM; under `CCc1c(C)[nH]c2cc(OCCOc3ccccc3)c(C)cc2c1=O`, 255 nM.
Turning to `CCCCc1cc2c(=O)c(-c3ccncc3)c(C)[nH]c2cc1OCCOc1ccccc1`, the 50% effective concentration (EC50) stood at 3150 nM. Compared with the last molecule, the EC50 is about 12-fold higher.
Turning to `CCc1c(C)[nH]c2cc(OCCCN3CCN(c4ccccc4)CC3)c(Cl)cc2c1=O`, a half-maximal response (EC50) required 976 nM. Against the preceding molecule, the EC50 is about 3.2-fold lower.

The next series relates to Plasmodium falciparum. Kind of series: Antimalarial activity against chloroquine-, mefloquine-, pyrimethamine-,atovaquone-resistant ring stage Plasmodium falciparum TM90-C2B infected in human A positive erythrocytes after 72 hrs by SYBR green 1-based fluorescence assay. The class given is functional, organism-based.
Details: not given
Turning to `CCCCc1cc2c(=O)c(-c3c(C)noc3C)c(C)[nH]c2cc1OCCOc1ccccc1`, a half-maximal effect (EC50) was put at 128 nM.
`CCc1c(C)[nH]c2cc(OCCOc3ccccc3)c(OC)cc2c1=O` displayed an EC50 of 19.5 nM.
In the case of `CCCCc1cc2c(=O)c(-c3ccc(Cl)cc3C)c(C)[nH]c2cc1OCCOc1ccccc1`, a half-maximal effect (EC50) was put at 542 nM.
The same measure, in the same setting: under `CCCCc1cc2c(=O)c(-c3cccc(Oc4ccc(F)cc4)c3)c(C)[nH]c2cc1OCCOc1ccccc1` stands 1000 nM; under `CCCCc1cc2c(=O)c(-c3ccccc3)c(C)[nH]c2cc1OCCOc1ccccc1`, 764 nM.
The same measure, in the same setting: under `COC(=O)c1c[nH]c2cc(OC)c(Cl)cc2c1=O` stands 765 nM; under `CCCCc1cc2c(=O)c(-c3ccc(C(F)(F)F)cc3F)c(C)[nH]c2cc1OCCOc1ccccc1`, 30.9 nM.
On to `CCCCc1cc2c(=O)c(-c3ccc(C(F)(F)F)cc3C)c(C)[nH]c2cc1OCCOc1ccccc1`, for which the half-maximal effective concentration (EC50) amounted to 140 nM.
On to `CCCCc1cc2c(=O)c(-c3ccc(COc4ccc(OC(F)(F)F)cc4)cc3)c(C)[nH]c2cc1OCCOc1ccccc1`, for which the 50% effective concentration (EC50) worked out at 4050 nM.
`CCc1c(C)[nH]c2cc(OCCOc3ccccc3)ccc2c1=O` had a half-maximal effective concentration (EC50) of 71.3 nM.
`CCc1c(C)[nH]c2cc(OCCCO)c(Cl)cc2c1=O` registered a concentration giving a half-maximal response (EC50) of 776 nM.
For `CCc1c(C)[nH]c2cc(OCCOc3ccccc3)c(C)cc2c1=O`, the EC50 was determined as 27.7 nM.
Molecule `CCCCc1cc2c(=O)c(-c3ccncc3)c(C)[nH]c2cc1OCCOc1ccccc1` displayed an EC50 of 1020 nM.
`CCc1c(C)[nH]c2cc(OCCCN3CCN(c4ccccc4)CC3)c(Cl)cc2c1=O` showed an EC50 of 91.7 nM.

A further series deals with Plasmodium falciparum. Kind of series: Resistance ratio, ratio of EC50 for chloroquine-, mefloquine, pyrimethamine-,atovaquone-resistant ring stage Plasmodium falciparum TM90-C2B to EC50 for chloroquine-, pyrimethamine-resistant Plasmodium falciparum W2.
Details: not given
It is filed as functional.
Take `CCCCc1cc2c(=O)c(-c3c(C)noc3C)c(C)[nH]c2cc1OCCOc1ccccc1`: the “Ratio EC50” value amounted to 4.73.
On to `CCc1c(C)[nH]c2cc(OCCOc3ccccc3)c(OC)cc2c1=O`, for which the “Ratio EC50” value was found to be 0.11.
On to `CCCCc1cc2c(=O)c(-c3ccc(Cl)cc3C)c(C)[nH]c2cc1OCCOc1ccccc1`, for which the “Ratio EC50” value stood at 7.89.
For the molecule `CCCCc1cc2c(=O)c(-c3cccc(Oc4ccc(F)cc4)c3)c(C)[nH]c2cc1OCCOc1ccccc1`, the “Ratio EC50” value is listed as 0.72.
For the molecule `CCCCc1cc2c(=O)c(-c3ccccc3)c(C)[nH]c2cc1OCCOc1ccccc1`, the “Ratio EC50” value was 0.71.
For the molecule `COC(=O)c1c[nH]c2cc(OC)c(Cl)cc2c1=O`, the “Ratio EC50” value is recorded as 5.7.
As to `CCCCc1cc2c(=O)c(-c3ccc(C(F)(F)F)cc3F)c(C)[nH]c2cc1OCCOc1ccccc1`, the “Ratio EC50” value is 1.11.
Regarding `CCCCc1cc2c(=O)c(-c3ccc(C(F)(F)F)cc3C)c(C)[nH]c2cc1OCCOc1ccccc1`, the “Ratio EC50” value is on record as 1.95.
In the case of `CCCCc1cc2c(=O)c(-c3ccc(COc4ccc(OC(F)(F)F)cc4)cc3)c(C)[nH]c2cc1OCCOc1ccccc1`, the “Ratio EC50” value is 1.
Regarding `CCc1c(C)[nH]c2cc(OCCOc3ccccc3)ccc2c1=O`, the “Ratio EC50” value turned out to be 0.79.
The same measure, in the same setting: as for `CCc1c(C)[nH]c2cc(OCCCO)c(Cl)cc2c1=O`, the figure is 0.09; as for `CCc1c(C)[nH]c2cc(OCCOc3ccccc3)c(C)cc2c1=O`, 0.11; as for `CCCCc1cc2c(=O)c(-c3ccncc3)c(C)[nH]c2cc1OCCOc1ccccc1`, 0.32.
`CCc1c(C)[nH]c2cc(OCCCN3CCN(c4ccccc4)CC3)c(Cl)cc2c1=O`: the “Ratio EC50” value came to 0.09.

For the next series, the system named is J774. Put plainly: Antiproliferative against mouse J774 cells after 72 hrs by Cell titer assay. The class given is cell-based. The following applies: J774, 72 h.
With `CCCCc1cc2c(=O)c(-c3c(C)noc3C)c(C)[nH]c2cc1OCCOc1ccccc1`, a half-maximal effect (EC50) was put at 22000 nM.
`CCc1c(C)[nH]c2cc(OCCOc3ccccc3)c(OC)cc2c1=O` had an EC50 above 29000 nM.
Regarding `CCCCc1cc2c(=O)c(-c3ccc(Cl)cc3C)c(C)[nH]c2cc1OCCOc1ccccc1`, the EC50 is above 21000 nM.
`CCCCc1cc2c(=O)c(-c3cccc(Oc4ccc(F)cc4)c3)c(C)[nH]c2cc1OCCOc1ccccc1`: the EC50 worked out at 19000 nM.
On the same count and under the same terms, as for `CCCCc1cc2c(=O)c(-c3ccccc3)c(C)[nH]c2cc1OCCOc1ccccc1`, the figure is 23000 nM.
The molecule `COC(=O)c1c[nH]c2cc(OC)c(Cl)cc2c1=O` came in with an EC50 of 37000 nM.
`CCCCc1cc2c(=O)c(-c3ccc(C(F)(F)F)cc3F)c(C)[nH]c2cc1OCCOc1ccccc1` gave an EC50 of 19000 nM.
On the same count and under the same terms, as for `CCCCc1cc2c(=O)c(-c3ccc(C(F)(F)F)cc3C)c(C)[nH]c2cc1OCCOc1ccccc1`, the figure is 20000 nM; as for `CCCCc1cc2c(=O)c(-c3ccc(COc4ccc(OC(F)(F)F)cc4)cc3)c(C)[nH]c2cc1OCCOc1ccccc1`, 16000 nM.
The same measure, in the same setting: as for `CCc1c(C)[nH]c2cc(OCCOc3ccccc3)ccc2c1=O`, the figure is 4000 nM; as for `CCc1c(C)[nH]c2cc(OCCOc3ccccc3)c(C)cc2c1=O`, above 30000 nM; as for `CCCCc1cc2c(=O)c(-c3ccncc3)c(C)[nH]c2cc1OCCOc1ccccc1`, 23000 nM.
As for `CCc1c(C)[nH]c2cc(OCCCN3CCN(c4ccccc4)CC3)c(Cl)cc2c1=O`, the half-maximal effective concentration (EC50) is above 23000 nM.

Another series has as its system J774. Put plainly: Antiproliferative against mouse J774 cells at < 20 uM after 72 hrs by Cell titer assay. The class given is cell-based. The following applies: j774, 72 h.
On to `CCCCc1cc2c(=O)c(-c3c(C)noc3C)c(C)[nH]c2cc1OCCOc1ccccc1`, for which the Activity result is “Non-toxic”.
`CCc1c(C)[nH]c2cc(OCCOc3ccccc3)c(OC)cc2c1=O`: the Activity result is “Non-toxic”.
Consider `CCCCc1cc2c(=O)c(-c3ccc(Cl)cc3C)c(C)[nH]c2cc1OCCOc1ccccc1`, for which the Activity entry is given as “Non-toxic”.
On the same count and under the same terms, under `CCCCc1cc2c(=O)c(-c3cccc(Oc4ccc(F)cc4)c3)c(C)[nH]c2cc1OCCOc1ccccc1` stands “Non-toxic”; under `CCCCc1cc2c(=O)c(-c3ccccc3)c(C)[nH]c2cc1OCCOc1ccccc1`, “Non-toxic”; under `COC(=O)c1c[nH]c2cc(OC)c(Cl)cc2c1=O`, “Non-toxic”.
On to `CCCCc1cc2c(=O)c(-c3ccc(C(F)(F)F)cc3F)c(C)[nH]c2cc1OCCOc1ccccc1`, for which the Activity result is recorded as “Non-toxic”.
With `CCCCc1cc2c(=O)c(-c3ccc(C(F)(F)F)cc3C)c(C)[nH]c2cc1OCCOc1ccccc1`, the Activity entry is “Non-toxic”.
Same read-out and setting: under `CCCCc1cc2c(=O)c(-c3ccc(COc4ccc(OC(F)(F)F)cc4)cc3)c(C)[nH]c2cc1OCCOc1ccccc1` stands “Non-toxic”; under `CCc1c(C)[nH]c2cc(OCCOc3ccccc3)ccc2c1=O`, “Non-toxic”.
Still for that read-out and setting: as for `CCc1c(C)[nH]c2cc(OCCCO)c(Cl)cc2c1=O`, the entry is “Non-toxic”.
Regarding `CCc1c(C)[nH]c2cc(OCCOc3ccccc3)c(C)cc2c1=O`, the Activity entry is given as “Non-toxic”.
As for `CCCCc1cc2c(=O)c(-c3ccncc3)c(C)[nH]c2cc1OCCOc1ccccc1`, the Activity result is on record as “Non-toxic”.
On to `CCc1c(C)[nH]c2cc(OCCCN3CCN(c4ccccc4)CC3)c(Cl)cc2c1=O`, for which the Activity result was “Non-toxic”.

Test system in the next series: not listed separately
Kind of series: Cytotoxicity index, ratio of EC50 for mouse J774 cells to EC50 for chloroquine-, mefloquine, pyrimethamine-,atovaquone-resistant ring stage Plasmodium falciparum TM90-C2B. The class given is cell-based. The following applies: read-out: Ratio EC50.
Consider `CCCCc1cc2c(=O)c(-c3c(C)noc3C)c(C)[nH]c2cc1OCCOc1ccccc1`, for which the selectivity ratio was at least 100.
Still for that read-out and setting: as for `CCc1c(C)[nH]c2cc(OCCOc3ccccc3)c(OC)cc2c1=O`, the figure is at least 100; as for `CCCCc1cc2c(=O)c(-c3ccc(Cl)cc3C)c(C)[nH]c2cc1OCCOc1ccccc1`, at least 100; as for `CCCCc1cc2c(=O)c(-c3cccc(Oc4ccc(F)cc4)c3)c(C)[nH]c2cc1OCCOc1ccccc1`, at least 100.
On the same count and under the same terms, as for `CCCCc1cc2c(=O)c(-c3ccccc3)c(C)[nH]c2cc1OCCOc1ccccc1`, the figure is at least 100; as for `COC(=O)c1c[nH]c2cc(OC)c(Cl)cc2c1=O`, at least 100.
For `CCCCc1cc2c(=O)c(-c3ccc(C(F)(F)F)cc3F)c(C)[nH]c2cc1OCCOc1ccccc1`, the selectivity ratio is at least 100.
On to `CCCCc1cc2c(=O)c(-c3ccc(C(F)(F)F)cc3C)c(C)[nH]c2cc1OCCOc1ccccc1`, for which the selectivity ratio is at least 100.
Turning to `CCCCc1cc2c(=O)c(-c3ccc(COc4ccc(OC(F)(F)F)cc4)cc3)c(C)[nH]c2cc1OCCOc1ccccc1`, the selectivity ratio is at least 100.
With `CCc1c(C)[nH]c2cc(OCCOc3ccccc3)ccc2c1=O`, the selectivity ratio is at least 100.
Turning to `CCc1c(C)[nH]c2cc(OCCCO)c(Cl)cc2c1=O`, the selectivity ratio is at least 100.
On to `CCc1c(C)[nH]c2cc(OCCOc3ccccc3)c(C)cc2c1=O`, for which the selectivity ratio was at least 100.
For the molecule `CCCCc1cc2c(=O)c(-c3ccncc3)c(C)[nH]c2cc1OCCOc1ccccc1`, the selectivity ratio is at least 100.
`CCc1c(C)[nH]c2cc(OCCCN3CCN(c4ccccc4)CC3)c(Cl)cc2c1=O`: the selectivity ratio is at least 100.
